Experimental data: BindingDB's records for doi:10.1021/jm00157a007 (1987)

target: Chymotrypsinogen A (Bos taurus) (UniProt P00766); experiment: In vitro binding affinity towards alpha-chymotrypsin from bovine pancreas.

| Ki [µM] | SMILES |
| --- | --- |
| 3.9 | CCCCc1ccc(=O)oc1Cl [5-Butyl-6-chloro-pyran-2-one] |
| 75 | O=c1ccc(-c2ccccc2)co1 [5-Phenyl-pyran-2-one] |
| 0.27 | O=c1oc(Cl)ccc1-c1ccccc1 [6-Chloro-3-phenyl-pyran-2-one] |
| 5.6 | CCc1ccc(=O)oc1Cl [6-Chloro-5-ethyl-pyran-2-one] |
| 1.3 | O=c1ccc(-c2ccccc2)c(Cl)o1 [6-Chloro-5-phenyl-pyran-2-one] |
